Source: US20190070165A1, “N-HYDROXYISOQUINOLINEDIONE INHIBITORS OF HBV REPLICATION” (Saint Louis University, priority 2016, published 2019)

Experiments:
[1] = molecular target: T1, HBV polymerase (Hepatitis B virus genotype D subtype ayw, UniProt P03156); assay: Endogenous polymerase reaction (EPR) in isolated HBV capsids; assay type: biochemical; settings: inhibitors at 4× EC50; #138 and #211 at 30 μM; ddTTP 5.7 μM
T1 construct: expressed in transfected cells; host or cells: HepDES19 (HepG2 with a stably transfected HBV genotype D genome)
From the text: Anti-RNaseH activity is implied from their preferential suppression of the plus-polarity DNA strand (FIG. 4), but strand-preferential inhibition could also result from inhibiting the polymerase also. This is because positive-polarity DNA synthesis can be suppressed both directly by inhibiting the RNaseH enzyme and indirectly by reducing the amount of negative-polarity DNA strand that templates the positive-polarity strand, whereas minus-polarity DNA synthesis can only be suppressed by chain termination. To determine if the efficacy of these compounds was due to inhibition of the HBV polymerase, capsids isolated from HepDES19 cells were tested in the endogenous polymerase reaction (EPR) to measure DNA chain elongation by the HBV polymerase along the HBV nucleic acids within the capsids. Isolated HBV capsids were supplied with dATP, dTTP, dGTP, and [α^32P]dCTP in the presence of inhibitors at 4× their EC50 values; negative control compounds #138 and #211 were tested at 30 μM. 1% DMSO was used as a vehicle control, and ddTTP (5.7 μM) was the positive control polymerase inhibitor. Samples were incubated at 37° C. for 7 hours to permit DNA chain elongation by the encapsidated HBV polymerase. Nucleic acids were purified, resolved on a 0.8% agarose gel and detected by autoradiography. DNAs from HBV capsids treated with the compounds incorporated ^32P similarly to DMSO control (FIG. 5).
HBV cores were harvested from HepDES19 cells grown in the absence of tetracycline for 20 days using polyethylene glycol 8000 precipitation (Guo et al., 2003). Cells were rinsed in PBS and lysed in 1 mL core lysis buffer with 2 μL of protease inhibitor cocktail (Sigma) at room temperature for 10 minutes. Cell lysates were collected and 10 mM CaCl2) was added. The lysate was centrifuged for 5 minutes at 21,000 g, the supernatant was incubated with 150 U of micrococcal nuclease at 37° C. for 60 minutes, and then 27 mM EDTA was added to stop the reaction. 333 μL of 26% PEG8000 was added to precipitate core particles and incubated at 4° C. for 6 hours. The samples were centrifuged at 21,000 g for 20 minutes at 4° C. The supernatant was removed and the pellet was resuspended in 250 μL of 10 mM Tris buffer pH 7.5. Cores were stored at −80° C.
The endogenous polymerase reaction was done using a modified procedure from (Nguyen et al., 2007). […] These nucleic acids were dissolved in tris-EDTA buffer, resolved on a 0.8% agarose gel, transferred to a HyBondN membrane, and detected by autoradiography. Band intensities for each experiment were quantified using Image J and percent inhibition was calculated relative to the DMSO-treated reactions. Statistical significance of variation in band intensities was evaluated using a one-way ANOVA with a Dunnett post hoc analysis, with p=0.05 indicating significance.

[2] = molecular target: T2, HBV RNaseH (Hepatitis B virus genotype D subtype ayw, UniProt P03156); settings: Table 3, compounds at 100, 60 and 20 μM; compounds 1-91 and 138-140 previously reported (Cai et al., 2014)
Target sequence in this assay (P03156 671-832): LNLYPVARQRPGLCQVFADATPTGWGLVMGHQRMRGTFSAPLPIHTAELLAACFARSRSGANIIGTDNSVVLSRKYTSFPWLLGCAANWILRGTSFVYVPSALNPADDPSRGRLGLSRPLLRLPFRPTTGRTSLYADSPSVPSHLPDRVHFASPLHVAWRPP

[3] = molecular target: T2, HBV RNaseH; assay: Molecular beacon RNaseH assay
Target sequence in this assay (P03156 671-832): as above
Method: In this assay, a hairpin DNA oligonucleotide labeled with fluorescein on one end and a quencher on the other is held in a linear conformation by annealing to a complementary RNA; cleavage of the RNA causes the DNA to fold into a hairpin, suppressing fluorescence (FIG. 8A).
The substrate is a hairpin DNA oligonucleotide with a 5′ fluorescein reporter and a 3′ black hole quencher annealed to a complementary RNA oligonucleotide. The reaction was initiated by adding 5 mM Mg^++, and fluorescence was monitored at 37° C. with a Synergy 4 96-well plate reader. Inhibition was qualitatively determined as a dose-dependent reduction in the rate of substrate degradation.

[4] = molecular target: T2, HBV RNaseH; assay: Detection of capsid-associated RNA:DNA heteroduplexes by Southern analysis; assay type: cell-based; set-up: expressed in transfected cells; host or cells: HepDES19 (HepG2 with a stably transfected HBV genotype D genome); settings: HepDES19 cells, seven days; #89 at 4×EC50 (10.4 μM), #138 at 30 μM
Method: RNA:DNA heteroduplexes migrate as double-stranded products, but degradation of the RNA strand with exogenous RNase causes the DNAs to migrate as single-stranded species. To test for accumulation of RNA:DNA heteroduplexes, HepDES19 cells replicating HBV were treated with 4×EC50 (10.4 μM) of compound #89 and 30 μM compound #138 (negative control). HBV cores were harvested after seven days of compound treatment. Capsid-associated nucleic acids were purified and split into two pools; one pool was treated with RNaseA and the other pool was mock treated.
HepDES19 cells were plated in 100 mm dishes without tetracycline and incubated for 72 hours in the absence of tetracycline before addition of compound #89 at 4×EC50 (10.4 μM) and the negative control compound #138 at 30 μM; compound-containing media was replaced every three days. HBV nucleic acids were purified seven days after compound addition. HBV core particles were isolated by sedimentation through a sucrose cushion as described (Tavis et al., 1998). Cores were treated overnight with proteinase K (0.5 mg/mL) and 1.5% SDS at 37° C. Nucleic acids were purified by phenol-chloroform extraction and ethanol precipitation. The nucleic acids were split into two pools. One pool was treated with RNaseA (1.5 μg/μL) at 37° C. for 30 minutes and the other was mock-treated. […]
Target sequence in this assay (P03156 whole entry): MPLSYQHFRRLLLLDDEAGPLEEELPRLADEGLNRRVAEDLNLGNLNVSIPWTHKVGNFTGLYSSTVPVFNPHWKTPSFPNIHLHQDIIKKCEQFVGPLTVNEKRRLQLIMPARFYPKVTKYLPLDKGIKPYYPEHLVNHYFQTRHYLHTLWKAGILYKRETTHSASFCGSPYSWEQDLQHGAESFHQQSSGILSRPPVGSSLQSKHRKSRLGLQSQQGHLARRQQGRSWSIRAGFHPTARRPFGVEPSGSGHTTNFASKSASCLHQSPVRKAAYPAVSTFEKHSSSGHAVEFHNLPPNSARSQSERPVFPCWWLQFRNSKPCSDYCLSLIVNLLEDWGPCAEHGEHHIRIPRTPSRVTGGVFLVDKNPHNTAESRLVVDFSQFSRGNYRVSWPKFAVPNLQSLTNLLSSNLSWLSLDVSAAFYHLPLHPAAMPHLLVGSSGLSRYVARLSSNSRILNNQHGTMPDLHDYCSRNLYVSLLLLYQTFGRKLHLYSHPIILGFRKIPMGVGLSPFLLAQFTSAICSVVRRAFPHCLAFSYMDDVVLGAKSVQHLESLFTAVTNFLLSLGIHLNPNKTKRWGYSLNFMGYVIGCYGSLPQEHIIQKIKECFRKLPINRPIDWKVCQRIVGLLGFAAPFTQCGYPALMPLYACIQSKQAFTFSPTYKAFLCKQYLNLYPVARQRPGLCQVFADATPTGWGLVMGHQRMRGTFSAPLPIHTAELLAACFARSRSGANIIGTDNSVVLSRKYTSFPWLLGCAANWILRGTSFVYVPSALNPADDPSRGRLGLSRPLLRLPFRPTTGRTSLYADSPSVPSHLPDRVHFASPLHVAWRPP

T1 sequence (P03156 whole entry): as above

SMILES: O=C1c2ccccc2C(=O)N1O [Compound 138]
- effect on 32P incorporation in EPR [1]: None of the HBV inhibitors or the two negative control compounds (#138 and 211) significantly altered incorporation
- Inhibition of HBV RNaseH, Oligonucleotide directed cleavage assay [2]: − (No inhibition detected at 100 μM)
- inhibition in the molecular beacon assay ([3]; 2.1 μg purified HBV RNaseH): had no effect on the rate of substrate degradation
- Inhibition of HBV RNaseH, Molecular Beacon cleavage assay ([3]; Table 3, 0 to 500 μM): − (No inhibition detected at 500 μM)
- accumulation of RNA:DNA heteroduplexes [4]: unaltered by exogenous RNase treatment
